In assay [1] the target is T1, COX-1 (Ovis aries, UniProt P05979).
T1 construct: purchased Cayman Chemical Company (Ann Arbor, MI)
T1 sequence (P05979 25-600): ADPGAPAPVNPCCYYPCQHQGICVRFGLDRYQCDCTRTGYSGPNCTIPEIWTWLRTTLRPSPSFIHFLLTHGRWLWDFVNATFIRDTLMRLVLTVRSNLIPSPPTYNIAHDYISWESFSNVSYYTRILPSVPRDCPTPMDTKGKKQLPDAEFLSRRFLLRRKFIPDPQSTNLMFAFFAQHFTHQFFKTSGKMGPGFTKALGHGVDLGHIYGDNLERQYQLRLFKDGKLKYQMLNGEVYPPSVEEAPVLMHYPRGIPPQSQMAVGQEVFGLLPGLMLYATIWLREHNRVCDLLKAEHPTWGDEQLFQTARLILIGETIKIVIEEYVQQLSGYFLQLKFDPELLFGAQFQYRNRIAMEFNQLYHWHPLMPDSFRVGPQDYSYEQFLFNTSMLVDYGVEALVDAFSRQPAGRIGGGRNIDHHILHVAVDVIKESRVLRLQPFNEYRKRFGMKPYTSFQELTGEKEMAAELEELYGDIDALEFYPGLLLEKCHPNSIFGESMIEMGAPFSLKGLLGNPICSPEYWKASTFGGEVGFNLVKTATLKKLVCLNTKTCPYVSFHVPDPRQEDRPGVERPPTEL
Put plainly: In vitro COX enzyme assay (COX Inhibitor Screening Kit, Cayman). Format: biochemical. As to conditions: means ± S.E.M. of 3 independent experiments. Here is the method:
(§1) COX activity was evaluated using a COX Inhibitor Screening Kit from Cayman Chemical Company (Ann Arbor, MI) according to the manufacturer’s instructions.

Assay [2] has as its target T2, COX-2 (Homo sapiens, UniProt P35354).
T2 construct: purchased Cayman Chemical Company (Ann Arbor, MI)
T2 sequence (P35354 18-604): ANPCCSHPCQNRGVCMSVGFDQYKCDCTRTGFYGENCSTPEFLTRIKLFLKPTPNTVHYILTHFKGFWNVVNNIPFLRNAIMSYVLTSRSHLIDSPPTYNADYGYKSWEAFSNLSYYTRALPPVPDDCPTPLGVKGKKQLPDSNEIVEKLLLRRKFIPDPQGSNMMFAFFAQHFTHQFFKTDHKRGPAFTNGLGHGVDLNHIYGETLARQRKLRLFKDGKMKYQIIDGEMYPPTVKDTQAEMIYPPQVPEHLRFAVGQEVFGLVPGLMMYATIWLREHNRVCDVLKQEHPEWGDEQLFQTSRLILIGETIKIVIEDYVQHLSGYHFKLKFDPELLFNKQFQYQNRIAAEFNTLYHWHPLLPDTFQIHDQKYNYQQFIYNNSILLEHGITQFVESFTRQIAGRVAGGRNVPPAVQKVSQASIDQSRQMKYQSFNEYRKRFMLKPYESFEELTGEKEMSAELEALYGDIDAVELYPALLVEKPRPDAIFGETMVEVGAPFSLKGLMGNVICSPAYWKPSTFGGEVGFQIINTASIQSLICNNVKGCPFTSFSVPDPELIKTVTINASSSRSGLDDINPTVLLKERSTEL
The assay is described as above. Format: biochemical. The note with it: means ± S.E.M. of 3 independent experiments. Here is the method: as §1

The test system of assay [3] is human umbilical vein endothelial cells (HUVECs). Put plainly: TXB2 and 6-keto PGF1α assay in HUVECs (ratio as cardiovascular toxicity biomarker). As to conditions: 3 µM. Format: cell-based.
Method: Cells (6×10^5) were seeded in a six-well plate in the presence of 10% FBS. At 70-80% confluence, cells were pretreated with vehicle or individual compounds in 1 mL fresh medium for 2 h. […] Supernatant fractions were collected for prostaglandin measurement using enzyme immunoassay kits (Cayman Chemical Company).
Figure 2 Effects of dietary phytochemicals on (A) TXB2 and (B) 6-keto-PGF1α under physiological conditions. HUVECs were seeded in a six-well-plate (6×10^5 cells per well). At 70-80% confluence, 1 mL fresh medium containing DMSO or 3 µM of each individual compound was added and cells were further incubated for 8 h. Supernatant fractions were collected for prostaglandin measurement. (C) The ratio of TXB2/6-keto-PGF1α. Data are presented as means ± S.E.M (n = 4) and the asterisk(s) indicate a significant (*, p < 0.05; ***, p < 0.001) difference versus the vehicle control group.

Bounds are passed on as bounds.

Consider `O=C1C[C@@H](c2ccc(O)cc2)Oc2cc(O)cc(O)c21` [Naringenin], for which the IC50 in assay [1] and in assay [2] was over 400 µM each time.

Turning to `Oc1ccc(/C=C/c2cc(O)cc(O)c2)cc1` [Resveratrol], half-maximal inhibition in assay [1] (IC50) was put at 3.4 ± 1.1 µM.

As for `O=c1c(O)c(-c2ccc(O)cc2)oc2cc(O)cc(O)c12` [Kaempferol], the IC50 in assay [1] was 111 ± 7.5 µM; in assay [2], 236 ± 19.7 µM.

`O=c1c(O)c(-c2ccc(O)c(O)c2)oc2cc(O)cc(O)c12` [Quercetin]: the IC50 in assay [1] and in assay [2] was over 400 µM throughout.

`O=c1cc(-c2ccc(O)cc2)oc2cc(O)cc(O)c12` [Apigenin]: inhibition in assay [1] was half-maximal at 94.1 ± 12.3 µM (IC50).

For `O=C(O[C@@H]1Cc2c(O)cc(O)cc2O[C@@H]1c1cc(O)c(O)c(O)c1)c1cc(O)c(O)c(O)c1` [EGCG], the IC50 was 17.9 ± 4.2 µM in assay [1] and 28.6 ± 3.8 µM in assay [2]. Further, the “ratio of TXB2/6-keto-PGF1α” value is listed as “most potent inhibitory effect” in assay [3] (physiological conditions, 8 h (Figure 2)) and “most potent inhibitory effect” in assay [3] (pro-inflammatory conditions, 2 h pretreatment then IL-1β 17.5 ng/mL for 8 h (Figure 3)).

In assay [1], `COc1cc(/C=C/C(=O)CC(=O)/C=C/c2ccc(O)c(OC)c2)ccc1O` [Curcumin] came in with an IC50 of 330 ± 34.3 µM.

Regarding `O=c1c(-c2ccc(O)cc2)coc2cc(O)cc(O)c12` [Genistein], the IC50 in assay [1] was found to be 9.9 ± 2.3 µM; in assay [2], 256 ± 35.7 µM.

As a reminder, the IC50 is the concentration that inhibits the measured activity by half. The low end stands for greater potency in that assay, the high end for weaker potency in that assay.

The values above are taken from publication PMC3789677, “Select Dietary Phytochemicals Function as Inhibitors of COX-1 but Not COX-2” (PLoS ONE, 2013).
